Structures are written as SMILES.

In assay [1] the target is Epidermal growth factor receptor (Homo sapiens, UniProt P00533). The assay is classed as functional.
The target in assay [2] is D(1A) dopamine receptor (Homo sapiens, UniProt P21728). It counts as functional, cell-based.
In assay [3] the target is T1, Muscarinic acetylcholine receptor M4 (Homo sapiens, UniProt P08173).
T1 sequence (P08173 whole entry): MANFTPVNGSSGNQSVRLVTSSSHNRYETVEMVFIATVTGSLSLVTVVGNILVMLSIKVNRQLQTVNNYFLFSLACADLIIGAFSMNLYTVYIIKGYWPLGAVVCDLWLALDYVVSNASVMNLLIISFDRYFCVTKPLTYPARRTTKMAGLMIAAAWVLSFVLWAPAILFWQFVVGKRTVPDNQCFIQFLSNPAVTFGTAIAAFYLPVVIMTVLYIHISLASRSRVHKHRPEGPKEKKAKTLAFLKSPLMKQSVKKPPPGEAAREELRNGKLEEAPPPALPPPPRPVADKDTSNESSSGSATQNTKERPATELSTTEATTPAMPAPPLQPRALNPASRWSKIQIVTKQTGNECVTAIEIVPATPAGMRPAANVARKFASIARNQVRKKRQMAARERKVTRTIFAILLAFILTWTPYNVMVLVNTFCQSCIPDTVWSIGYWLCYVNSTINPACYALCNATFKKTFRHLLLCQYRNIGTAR

The target of assay [4] is T2, Substance-K receptor (Homo sapiens, UniProt P21452).
T2 sequence (P21452 whole entry): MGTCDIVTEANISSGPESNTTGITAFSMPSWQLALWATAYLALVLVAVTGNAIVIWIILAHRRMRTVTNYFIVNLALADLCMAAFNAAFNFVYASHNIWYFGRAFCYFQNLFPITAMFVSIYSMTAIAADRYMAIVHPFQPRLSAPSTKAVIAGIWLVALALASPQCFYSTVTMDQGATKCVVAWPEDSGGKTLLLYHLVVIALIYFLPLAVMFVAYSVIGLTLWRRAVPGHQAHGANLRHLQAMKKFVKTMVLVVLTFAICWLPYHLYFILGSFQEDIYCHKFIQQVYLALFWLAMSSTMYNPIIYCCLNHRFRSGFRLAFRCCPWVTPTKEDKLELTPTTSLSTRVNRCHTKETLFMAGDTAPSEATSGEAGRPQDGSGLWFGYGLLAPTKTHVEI

Assay [5] addresses D(1B) dopamine receptor (Homo sapiens, UniProt P21918).
Assay [6] has as its target 5-hydroxytryptamine receptor 5A (Homo sapiens, UniProt P47898).
Assay [7] deals with T3, 5-hydroxytryptamine receptor 1A (Homo sapiens, UniProt P08908).
T3 sequence (P08908 whole entry): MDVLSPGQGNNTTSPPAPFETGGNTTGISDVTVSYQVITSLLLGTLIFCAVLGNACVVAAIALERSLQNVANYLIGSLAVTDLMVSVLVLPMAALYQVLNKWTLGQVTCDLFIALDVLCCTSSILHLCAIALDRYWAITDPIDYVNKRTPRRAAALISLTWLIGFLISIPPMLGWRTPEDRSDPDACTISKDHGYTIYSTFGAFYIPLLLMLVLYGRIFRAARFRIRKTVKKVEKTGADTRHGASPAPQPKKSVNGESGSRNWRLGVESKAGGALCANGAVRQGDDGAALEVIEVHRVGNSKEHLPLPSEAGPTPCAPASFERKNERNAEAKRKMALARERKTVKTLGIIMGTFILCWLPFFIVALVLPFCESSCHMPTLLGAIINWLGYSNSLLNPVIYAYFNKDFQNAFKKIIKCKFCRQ

For assay [8], the target named is T4, Alpha-1A adrenergic receptor (Homo sapiens, UniProt P35348).
T4 sequence (P35348 whole entry): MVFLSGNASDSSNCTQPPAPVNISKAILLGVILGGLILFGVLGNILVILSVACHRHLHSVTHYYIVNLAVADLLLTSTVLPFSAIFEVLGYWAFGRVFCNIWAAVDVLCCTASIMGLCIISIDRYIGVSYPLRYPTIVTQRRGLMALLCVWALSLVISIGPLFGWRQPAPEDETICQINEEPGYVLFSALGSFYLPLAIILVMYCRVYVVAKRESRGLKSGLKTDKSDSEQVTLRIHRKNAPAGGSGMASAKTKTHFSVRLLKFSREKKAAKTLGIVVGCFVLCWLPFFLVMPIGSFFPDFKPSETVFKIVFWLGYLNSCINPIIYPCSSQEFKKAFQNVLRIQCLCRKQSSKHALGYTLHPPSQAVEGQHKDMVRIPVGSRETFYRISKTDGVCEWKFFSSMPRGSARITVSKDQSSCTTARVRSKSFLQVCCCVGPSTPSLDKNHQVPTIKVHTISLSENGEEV

Assay [9] concerns the target T5, Histamine H1 receptor (Homo sapiens, UniProt P35367). The assay is classed as functional, cell-based.
Assay [10] addresses T5, Histamine H1 receptor. It counts as functional, cell-based. The source holds these as a separate data set.
The target of assay [11] is T6, Peroxisome proliferator-activated receptor alpha (Homo sapiens, UniProt Q07869).
T6 sequence (Q07869 whole entry): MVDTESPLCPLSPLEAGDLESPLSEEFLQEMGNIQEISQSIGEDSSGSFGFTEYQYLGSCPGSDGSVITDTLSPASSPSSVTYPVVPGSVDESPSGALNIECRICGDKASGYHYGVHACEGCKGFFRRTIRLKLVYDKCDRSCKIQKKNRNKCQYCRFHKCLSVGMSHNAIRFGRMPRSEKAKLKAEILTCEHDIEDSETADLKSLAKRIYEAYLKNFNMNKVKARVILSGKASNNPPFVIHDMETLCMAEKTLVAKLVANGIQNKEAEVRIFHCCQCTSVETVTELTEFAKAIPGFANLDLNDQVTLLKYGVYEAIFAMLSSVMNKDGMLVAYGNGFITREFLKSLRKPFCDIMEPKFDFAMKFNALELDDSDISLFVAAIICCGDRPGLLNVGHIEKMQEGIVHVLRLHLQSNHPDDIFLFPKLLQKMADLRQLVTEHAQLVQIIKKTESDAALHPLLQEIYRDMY
The assay is classed as functional.

In assay [12] the target is T6, Peroxisome proliferator-activated receptor alpha. The assay is classed as functional. This is another data set of the same source.
Further: assay procedure not described here.

D(1A) dopamine receptor, sequence (P21728 whole entry): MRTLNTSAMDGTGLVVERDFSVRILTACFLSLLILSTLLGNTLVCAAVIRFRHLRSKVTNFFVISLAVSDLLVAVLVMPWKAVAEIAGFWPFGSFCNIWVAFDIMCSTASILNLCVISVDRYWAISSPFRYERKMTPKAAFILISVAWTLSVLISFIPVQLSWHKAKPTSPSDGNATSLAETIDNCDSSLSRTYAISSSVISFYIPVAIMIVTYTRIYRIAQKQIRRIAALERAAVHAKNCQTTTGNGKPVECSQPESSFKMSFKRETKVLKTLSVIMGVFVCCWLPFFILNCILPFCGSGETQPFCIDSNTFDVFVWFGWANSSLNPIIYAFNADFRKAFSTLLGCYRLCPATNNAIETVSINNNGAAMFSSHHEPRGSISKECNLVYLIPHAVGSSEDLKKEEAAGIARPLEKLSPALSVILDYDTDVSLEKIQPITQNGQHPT
D(1B) dopamine receptor, sequence (P21918 whole entry): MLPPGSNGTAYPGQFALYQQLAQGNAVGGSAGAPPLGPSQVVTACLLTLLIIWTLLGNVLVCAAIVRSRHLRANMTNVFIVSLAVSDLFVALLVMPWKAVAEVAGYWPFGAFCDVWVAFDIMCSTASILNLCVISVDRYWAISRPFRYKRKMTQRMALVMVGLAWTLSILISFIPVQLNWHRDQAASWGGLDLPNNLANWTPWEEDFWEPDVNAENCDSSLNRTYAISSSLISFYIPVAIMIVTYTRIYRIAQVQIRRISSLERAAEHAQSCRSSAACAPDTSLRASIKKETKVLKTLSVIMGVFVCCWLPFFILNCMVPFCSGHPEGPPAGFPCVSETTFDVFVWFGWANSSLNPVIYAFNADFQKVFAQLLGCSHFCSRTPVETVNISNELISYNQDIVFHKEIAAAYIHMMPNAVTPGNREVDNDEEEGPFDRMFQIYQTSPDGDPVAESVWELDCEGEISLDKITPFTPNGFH
5-hydroxytryptamine receptor 5A, sequence (P47898 whole entry): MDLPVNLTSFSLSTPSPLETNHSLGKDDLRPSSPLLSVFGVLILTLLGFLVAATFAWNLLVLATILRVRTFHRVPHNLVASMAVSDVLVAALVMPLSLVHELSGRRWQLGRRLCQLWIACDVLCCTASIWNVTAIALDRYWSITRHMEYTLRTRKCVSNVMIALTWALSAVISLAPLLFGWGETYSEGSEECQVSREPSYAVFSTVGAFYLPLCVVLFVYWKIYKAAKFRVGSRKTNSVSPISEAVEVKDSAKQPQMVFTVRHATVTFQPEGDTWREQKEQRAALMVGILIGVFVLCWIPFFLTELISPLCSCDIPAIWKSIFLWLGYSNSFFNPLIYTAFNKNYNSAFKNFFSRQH
Epidermal growth factor receptor, sequence (P00533 whole entry): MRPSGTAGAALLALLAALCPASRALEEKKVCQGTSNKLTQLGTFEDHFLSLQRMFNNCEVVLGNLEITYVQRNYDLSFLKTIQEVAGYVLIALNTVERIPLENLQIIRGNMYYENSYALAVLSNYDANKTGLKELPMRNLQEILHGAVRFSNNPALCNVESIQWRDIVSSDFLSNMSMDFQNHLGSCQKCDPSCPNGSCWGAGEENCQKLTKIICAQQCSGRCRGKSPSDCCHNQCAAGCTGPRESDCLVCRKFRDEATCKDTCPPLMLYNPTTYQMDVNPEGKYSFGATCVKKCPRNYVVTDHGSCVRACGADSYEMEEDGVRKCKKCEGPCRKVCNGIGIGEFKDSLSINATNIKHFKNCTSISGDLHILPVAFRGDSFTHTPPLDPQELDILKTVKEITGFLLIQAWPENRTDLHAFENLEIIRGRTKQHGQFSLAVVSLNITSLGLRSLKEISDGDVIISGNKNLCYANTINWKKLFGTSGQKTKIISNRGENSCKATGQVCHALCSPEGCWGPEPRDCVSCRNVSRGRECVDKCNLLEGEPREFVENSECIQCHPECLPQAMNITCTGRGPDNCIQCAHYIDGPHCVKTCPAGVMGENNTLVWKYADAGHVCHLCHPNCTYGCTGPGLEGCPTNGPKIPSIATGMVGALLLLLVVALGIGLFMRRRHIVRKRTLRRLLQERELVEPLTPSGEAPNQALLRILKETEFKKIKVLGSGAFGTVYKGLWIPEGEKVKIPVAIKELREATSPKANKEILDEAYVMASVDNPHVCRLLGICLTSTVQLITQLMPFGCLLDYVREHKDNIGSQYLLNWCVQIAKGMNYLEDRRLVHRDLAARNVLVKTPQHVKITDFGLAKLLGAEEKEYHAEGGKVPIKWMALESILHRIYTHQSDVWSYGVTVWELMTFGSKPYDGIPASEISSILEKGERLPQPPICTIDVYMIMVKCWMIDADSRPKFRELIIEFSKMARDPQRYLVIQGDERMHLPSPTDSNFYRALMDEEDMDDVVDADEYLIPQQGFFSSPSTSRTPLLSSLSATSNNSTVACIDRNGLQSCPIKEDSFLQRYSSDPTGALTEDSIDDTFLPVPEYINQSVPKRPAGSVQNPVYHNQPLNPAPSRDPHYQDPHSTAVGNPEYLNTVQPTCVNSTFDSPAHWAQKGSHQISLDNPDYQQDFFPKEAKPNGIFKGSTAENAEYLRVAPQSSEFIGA
T5 sequence (P35367 whole entry): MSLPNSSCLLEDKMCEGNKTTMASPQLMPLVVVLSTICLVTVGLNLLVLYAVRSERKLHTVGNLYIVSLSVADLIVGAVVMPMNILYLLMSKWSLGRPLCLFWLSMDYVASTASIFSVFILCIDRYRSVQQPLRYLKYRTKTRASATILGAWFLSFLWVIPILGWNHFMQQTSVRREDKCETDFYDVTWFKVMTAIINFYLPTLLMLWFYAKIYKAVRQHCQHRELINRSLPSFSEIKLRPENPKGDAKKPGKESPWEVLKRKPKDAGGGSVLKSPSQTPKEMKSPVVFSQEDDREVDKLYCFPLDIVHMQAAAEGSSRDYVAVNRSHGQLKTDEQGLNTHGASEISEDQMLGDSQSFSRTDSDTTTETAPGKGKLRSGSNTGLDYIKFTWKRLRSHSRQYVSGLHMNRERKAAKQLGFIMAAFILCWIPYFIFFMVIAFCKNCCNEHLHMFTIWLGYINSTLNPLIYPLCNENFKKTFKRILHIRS

What is called AC50 is the concentration giving half of the maximal activity seen. A low value points to activity at low concentration. Regarding `CO/N=C(\C(=O)N[C@@H]1C(=O)N2C(C(=O)[O-])=C(C[N+]3(C)CCCC3)CS[C@H]12)c1csc(N)n1`, the AC50 in assay [1] and in assay [2] was more than 300 µM each time.
Regarding `CCOC(=O)[C@H](CCc1ccccc1)N[C@@H](C)C(=O)N1CCC[C@H]1C(=O)O`, the AC50 in assay [3], in assay [4], in assay [5] and in assay [6] was more than 10 µM in each case.
For the compound `Nc1nc(N)c2nc(-c3ccccc3)c(N)nc2n1`, the AC50 in assay [3] was more than 10 µM; in assay [4] it was more than 10 µM; in assay [7], more than 30 µM; in assay [5], more than 10 µM; in assay [6] it was more than 10 µM.
With `CC(=O)c1ccc2c(c1)N(CCCN1CCN(CCO)CC1)c1ccccc1S2` [ACETOPHENAZINE], the half-maximal activity concentration (AC50) in [2] stood at 1.11 µM. In other words, the single-digit micromolar range.
In turn, `Oc1ncnc2[nH]ncc12` [ALLOPURINOL] registered an AC50 in [7] of more than 30 µM.
In the case of `CC(=O)OCC(=O)[C@@]1(O)CC[C@H]2[C@@H]3CCC4=CC(=O)CC[C@]4(C)[C@H]3C(=O)C[C@@]21C` [CORTISONE ACETATE], the AC50 in assay [8] was more than 30 µM.
For `COC(=O)[C@@H]1CC2=CC(=O)CC[C@]2(C)[C@@]23O[C@@H]2C[C@@]2(C)[C@@H](CC[C@@]24CCC(=O)O4)[C@H]13` [EPLERENONE], the AC50 in assay [9], in assay [1], in [2] and in assay [10] was more than 30 µM in each case.
Consider `CCC(=O)O[C@H]1[C@H](O[C@@H]2[C@@H](C)[C@H](O[C@H]3C[C@@](C)(OC)[C@@H](O)[C@H](C)O3)[C@@H](C)C(=O)O[C@H](CC)[C@@](C)(O)[C@H](O)[C@@H](C)C(=O)[C@H](C)C[C@@]2(C)O)O[C@H](C)C[C@@H]1N(C)C` [ERYTHROMYCIN PROPIONATE], for which the half-maximal activity concentration (AC50) in assay [8] was more than 30 µM.
For `C#C[C@]1(O)CC[C@H]2[C@@H]3CCc4cc(O)ccc4[C@H]3CC[C@@]21C` [ETHINYL ESTRADIOL], the half-maximal activity concentration (AC50) in assay [11], in [12] and in assay [6] was more than 30 µM throughout.
On to `NC(N)=Nc1nc(CSCCC(N)=NS(N)(=O)=O)cs1` [FAMOTIDINE], for which the AC50 in assay [3], in assay [4], in assay [5] and in assay [6] was more than 10 µM throughout.
In assay [7], `CC(C)C(=O)Nc1ccc([N+](=O)[O-])c(C(F)(F)F)c1` [FLUTAMIDE] registered a concentration at half-maximal activity (AC50) of more than 30 µM.
As to `COc1ccc2c(c1)C(=O)N(CCc1ccc(S(=O)(=O)NC(=O)NC3CCCCC3)cc1)C(=O)C2(C)C` [GLIQUIDONE], the concentration at half-maximal activity (AC50) in assay [11] and in assay [12] was more than 30 µM throughout.
For `NS(=O)(=O)c1cc2c(cc1Cl)NCNS2(=O)=O` [HYDROCHLOROTHIAZIDE], the AC50 in [3], in assay [4], in assay [5] and in [6] was more than 10 µM each time.
As to `CC(C)Cc1ccc(CC(=O)O)cc1` [IBUFENAC], the AC50 in assay [1] and in assay [2] was more than 30 µM throughout.
For `CC(C)NNC(=O)c1ccncc1` [IPRONIAZID], the AC50 in assay [1] and in assay [2] was more than 30 µM throughout.
`OC[C@@H](O)[C@@H](O)[C@H](O)[C@H](O)CO` [MANNITOL] came in with an AC50 in [8] of more than 30 µM.
In the case of `CC(C(=O)O)c1ccc(N2CC=CC2)c(Cl)c1` (stereo not drawn) [PIRPROFEN], the AC50 in assay [9] and in assay [10] was more than 30 µM each time.
Regarding `NC(=O)c1cnccn1` [PYRAZINAMIDE], the AC50 in assay [7] was more than 30 µM.
Consider `O=C(NC[C@H]1CN(c2ccc(N3CCOCC3=O)cc2)C(=O)O1)c1ccc(Cl)s1` [RIVAROXABAN], for which the AC50 in assay [11] and in assay [12] was more than 30 µM each time.
`Cc1cc2c(cc1CC(=O)c1sccc1S(=O)(=O)Nc1onc(C)c1Cl)OCO2` [SITAXENTAN]: in [8], the concentration at half-maximal activity (AC50) is more than 30 µM.
For `O=C(CCCCCCC(=O)Nc1ccccc1)NO` [VORINOSTAT], the AC50 in [9] was more than 30 µM; in assay [3], more than 10 µM; in [4], more than 10 µM; in assay [10] it was more than 30 µM.

The values above are taken from ChEMBL document CHEMBL5291721, “A preclinical secondary pharmacology resource illuminates target-adverse drug reaction associations of marketed drugs” (Nat Commun, 2023).
